# According to patent publication US10059717B2, “Urea compounds containing 3,4-dihydropyrimido[4,5-D]pyrimidin-2(1H)-one skeleton as protein kinase inhibitors” (KOREA INSTITUTE OF SCIENCE AND TECHNOLOGY, priority 2016, dated 2018):
# Tests used:
# [1] = system: preclinical leukemia models; conditions: cited from earlier work
# [2] = system: cell samples from AML patients with actual NRAS mutants; conditions: cited from earlier work
# Ba/F3 (N-Ras G12D) = assay: Proliferation inhibitory activity, Ba/F3; assay type: cell-based; conditions: Mus musculus, BaF3; Ba/F3 (N-Ras G12D) cell line; read-out: Proliferation inhibitory efficacy (GI50, μM) Ba/F3 (N-Ras G12D)
# Description: (§1) GI50 values were calculated by measuring the proliferation inhibitory efficacy of the compounds of the present invention on mt-NRAS (G12D) Ba/F3, U937 (wt-NRAS) and OCI-AML3 (mt-NRAS) cell lines.
# GCK = target: T1, GCK (Homo sapiens, UniProt Q12851); assay: GCK kinase inhibitory activity; assay type: biochemical; conditions: read-out: Kinase inhibitory efficacy, GI50 GCK
# T1 sequence (Q12851 1-820): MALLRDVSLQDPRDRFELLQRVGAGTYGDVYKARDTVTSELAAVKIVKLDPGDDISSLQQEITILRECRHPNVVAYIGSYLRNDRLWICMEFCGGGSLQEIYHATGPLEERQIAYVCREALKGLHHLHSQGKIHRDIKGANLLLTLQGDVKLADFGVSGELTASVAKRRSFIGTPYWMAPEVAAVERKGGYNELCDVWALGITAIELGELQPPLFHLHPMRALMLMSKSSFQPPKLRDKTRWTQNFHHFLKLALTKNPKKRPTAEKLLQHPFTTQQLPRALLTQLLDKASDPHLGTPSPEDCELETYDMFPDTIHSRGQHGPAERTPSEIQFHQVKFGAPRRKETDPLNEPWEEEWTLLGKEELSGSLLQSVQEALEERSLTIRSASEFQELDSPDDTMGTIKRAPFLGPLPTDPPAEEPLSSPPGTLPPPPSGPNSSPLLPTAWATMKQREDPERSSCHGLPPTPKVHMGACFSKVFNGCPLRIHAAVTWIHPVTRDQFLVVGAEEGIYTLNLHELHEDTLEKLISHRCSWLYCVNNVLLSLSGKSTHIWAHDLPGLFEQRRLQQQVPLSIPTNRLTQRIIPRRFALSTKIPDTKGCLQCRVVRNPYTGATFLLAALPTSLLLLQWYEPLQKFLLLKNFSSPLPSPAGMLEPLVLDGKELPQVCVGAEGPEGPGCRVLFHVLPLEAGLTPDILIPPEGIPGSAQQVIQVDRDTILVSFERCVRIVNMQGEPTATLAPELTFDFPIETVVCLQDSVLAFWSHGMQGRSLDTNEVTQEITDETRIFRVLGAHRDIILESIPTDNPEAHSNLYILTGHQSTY
# Description: (§2) GI50 values were calculated by measuring the inhibitory efficacy of the compounds of the present invention against both GCK and ACK1 kinases.
# ACK1 = ACK1 (Homo sapiens, UniProt Q07912); assay: ACK1 kinase inhibitory activity; assay type: biochemical; conditions: read-out: Kinase inhibitory efficacy, GI50 ACK1
# Sequence of ACK1 (Q07912 whole entry): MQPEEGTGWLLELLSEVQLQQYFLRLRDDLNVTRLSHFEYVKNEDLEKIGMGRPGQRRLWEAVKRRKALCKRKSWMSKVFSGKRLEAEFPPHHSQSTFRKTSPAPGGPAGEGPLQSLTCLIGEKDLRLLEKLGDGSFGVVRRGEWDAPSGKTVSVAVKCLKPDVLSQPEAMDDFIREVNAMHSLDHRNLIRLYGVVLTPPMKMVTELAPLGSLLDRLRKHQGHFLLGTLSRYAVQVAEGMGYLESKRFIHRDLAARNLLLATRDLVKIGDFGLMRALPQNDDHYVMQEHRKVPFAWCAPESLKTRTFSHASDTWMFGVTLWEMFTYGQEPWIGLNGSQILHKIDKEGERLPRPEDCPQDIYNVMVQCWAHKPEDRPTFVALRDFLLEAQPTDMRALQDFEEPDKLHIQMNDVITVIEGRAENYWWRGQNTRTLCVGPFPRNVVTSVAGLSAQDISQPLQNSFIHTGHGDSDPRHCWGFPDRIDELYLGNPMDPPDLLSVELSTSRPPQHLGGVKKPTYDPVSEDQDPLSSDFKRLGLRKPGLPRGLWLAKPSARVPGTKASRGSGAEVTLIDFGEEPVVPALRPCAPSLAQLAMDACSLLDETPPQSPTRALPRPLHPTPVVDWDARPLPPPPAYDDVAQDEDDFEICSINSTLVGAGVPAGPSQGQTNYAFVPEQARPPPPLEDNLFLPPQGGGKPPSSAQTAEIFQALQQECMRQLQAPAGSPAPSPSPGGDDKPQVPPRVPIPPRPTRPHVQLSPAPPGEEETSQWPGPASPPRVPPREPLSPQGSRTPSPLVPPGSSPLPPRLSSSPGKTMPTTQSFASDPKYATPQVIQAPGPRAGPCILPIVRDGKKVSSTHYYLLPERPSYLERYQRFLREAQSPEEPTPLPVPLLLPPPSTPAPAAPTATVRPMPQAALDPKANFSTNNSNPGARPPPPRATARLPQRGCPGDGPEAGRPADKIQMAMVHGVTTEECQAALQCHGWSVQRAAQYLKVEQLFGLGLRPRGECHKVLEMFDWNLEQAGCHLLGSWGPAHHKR
# Description: as §2
# OCI-AML3 (N-Ras Q61L) = assay: Proliferation inhibitory activity, OCI-AML3; assay type: cell-based; conditions: Homo sapiens, OCI-AML-3; OCI-AML3 (N-Ras Q61L) cell line; read-out: Proliferation inhibitory efficacy (GI50, μM) OCI-AML3 (N-Ras Q61L)
# Description: as §1
# Accordingly, the compounds of the present invention are particularly effective as a therapeutic agent for acute myelogenous leukemia (AML).
# U937 (N-Ras WT) = assay: Proliferation inhibitory activity, U937; assay type: cell-based; conditions: Homo sapiens, U-937; U937 (N-Ras WT) cell line; read-out: Proliferation inhibitory efficacy (GI50, μM) U937 (N-Ras WT)
# Description: as §1
SMILES,inhibitory effects in preclinical leukemia models [1],efficacy in cell samples from AML patients [2],GI50 (Ba/F3 (N-Ras G12D)),GI50 (GCK),GI50 (ACK1),GI50 (OCI-AML3 (N-Ras Q61L)),GI50 (U937 (N-Ras WT))
Cc1ccc(Nc2ncc3c(n2)N(C)C(=O)N(c2cc(NC(=O)c4cccc(C(F)(F)F)c4)ccc2C)C3)cn1 [GNF 7],inhibitory effects in preclinical leukemia models have been observed,exhibited its efficacy,–,–,–,–,–
"COc1ccccc1NC(=O)Nc1ccc(C)c(N2Cc3cnc(Nc4ccc(N5CCC(C(N)=O)CC5)nc4)nc3N(C)C2=O)c1 [Compound No. 18, 1-(5-((6-(5-(3-(2-methoxyphenyl)ureido)-2-methylphenyl)-8-methyl-7-oxo-5,6,7,8-tetrahydropyrimido[4,5-d]pyrimidin-2-yl)amino)pyridin-2-yl)piperidin-4-carboxamide]",–,–,< 0.5 µM,< 30 nM,30 to 100 nM,< 0.5 µM,≥ 5 µM
